Measured values reported in publication PMC10620772, “Design, synthesis, and biological evaluation of new pyrimidine-5-carbonitrile derivatives as novel anti-cancer, dual EGFR^WT/COX-2 inhibitors with docking studies” (RSC Advances, 2023).

How the values were obtained:
Format in all cases: cell-based, human
CCRF-CEM = assay: NCI60 antitumor screening; conditions: 10 μM one-dose
HL-60(TB) = assay: NCI60 antitumor screening; conditions: 10 μM one-dose
K-562 = assay: NCI60 antitumor screening; conditions: 10 μM one-dose
MOLT-4 = assay: NCI60 antitumor screening; conditions: 10 μM one-dose
RPMI-8226 = assay: NCI60 antitumor screening; conditions: 10 μM one-dose
SR = assay: NCI60 antitumor screening; conditions: 10 μM one-dose
A549/ATCC = assay: NCI60 antitumor screening; conditions: 10 μM one-dose
EKVX = assay: NCI60 antitumor screening; conditions: 10 μM one-dose
HOP-62 = assay: NCI60 antitumor screening; conditions: 10 μM one-dose
HOP-92 = assay: NCI60 antitumor screening; conditions: 10 μM one-dose
NCI-H226 = assay: NCI60 antitumor screening; conditions: 10 μM one-dose
NCI-H23 = assay: NCI60 antitumor screening; conditions: 10 μM one-dose
NCI-H460 = assay: NCI60 antitumor screening; conditions: 10 μM one-dose
NCI-H522 = assay: NCI60 antitumor screening; conditions: 10 μM one-dose
COLO 205 = assay: NCI60 antitumor screening; conditions: 10 μM one-dose
HCC-2998 = assay: NCI60 antitumor screening; conditions: 10 μM one-dose
HCT-116 = assay: NCI60 antitumor screening; conditions: 10 μM one-dose
HCT-15 = assay: NCI60 antitumor screening; conditions: 10 μM one-dose
HT29 = assay: NCI60 antitumor screening; conditions: 10 μM one-dose
KM12 = assay: NCI60 antitumor screening; conditions: 10 μM one-dose
SW-620 = assay: NCI60 antitumor screening; conditions: 10 μM one-dose
SF-268 = assay: NCI60 antitumor screening; conditions: 10 μM one-dose
SF-295 = assay: NCI60 antitumor screening; conditions: 10 μM one-dose
SF-539 = assay: NCI60 antitumor screening; conditions: 10 μM one-dose
SNB-19 = assay: NCI60 antitumor screening; conditions: 10 μM one-dose
SNB-75 = assay: NCI60 antitumor screening; conditions: 10 μM one-dose
U251 = assay: NCI60 antitumor screening; conditions: 10 μM one-dose
LOX IMVI = assay: NCI60 antitumor screening; conditions: 10 μM one-dose
MALME-3M = assay: NCI60 antitumor screening; conditions: 10 μM one-dose
M14 = assay: NCI60 antitumor screening; conditions: 10 μM one-dose
MDA-MB-435 = assay: NCI60 antitumor screening; conditions: 10 μM one-dose
SK-MEL-2 = assay: NCI60 antitumor screening; conditions: 10 μM one-dose
SK-MEL-28 = assay: NCI60 antitumor screening; conditions: 10 μM one-dose
SK-MEL-5 = assay: NCI60 antitumor screening; conditions: 10 μM one-dose
UACC-257 = assay: NCI60 antitumor screening; conditions: 10 μM one-dose
UACC-62 = assay: NCI60 antitumor screening; conditions: 10 μM one-dose
IGROV1 = assay: NCI60 antitumor screening; conditions: 10 μM one-dose
OVCAR-3 = assay: NCI60 antitumor screening; conditions: 10 μM one-dose
OVCAR-4 = assay: NCI60 antitumor screening; conditions: 10 μM one-dose
OVCAR-5 = assay: NCI60 antitumor screening; conditions: 10 μM one-dose
OVCAR-8 = assay: NCI60 antitumor screening; conditions: 10 μM one-dose
NCI/ADR-RES = assay: NCI60 antitumor screening; conditions: 10 μM one-dose
SK-OV-3 = assay: NCI60 antitumor screening; conditions: 10 μM one-dose
786–0 = assay: NCI60 antitumor screening; conditions: 10 μM one-dose
A498 = assay: NCI60 antitumor screening; conditions: 10 μM one-dose
ACHN = assay: NCI60 antitumor screening; conditions: 10 μM one-dose
CAKI-1 = assay: NCI60 antitumor screening; conditions: 10 μM one-dose
RXF 393 = assay: NCI60 antitumor screening; conditions: 10 μM one-dose
SN12C = assay: NCI60 antitumor screening; conditions: 10 μM one-dose
TK-10 = assay: NCI60 antitumor screening; conditions: 10 μM one-dose
UO-31 = assay: NCI60 antitumor screening; conditions: 10 μM one-dose
PC-3 = assay: NCI60 antitumor screening; conditions: 10 μM one-dose
DU-145 = assay: NCI60 antitumor screening; conditions: 10 μM one-dose
MCF7 = assay: NCI60 antitumor screening; conditions: 10 μM one-dose
MDA-MB-231/ATCC = assay: NCI60 antitumor screening; conditions: 10 μM one-dose
HS 578T = assay: NCI60 antitumor screening; conditions: 10 μM one-dose
BT-549 = assay: NCI60 antitumor screening; conditions: 10 μM one-dose
T-47D = assay: NCI60 antitumor screening; conditions: 10 μM one-dose
MDA-MB-468 = assay: NCI60 antitumor screening; conditions: 10 μM one-dose
NCI60 cell lines panel = assay: NCI60 antitumor screening, full panel; conditions: 10 μM one-dose, mean over NCI60
Method: The National Cancer Institute (NCI), Bethesda, Maryland, United States, selected all of the novel synthesized compounds (2b–d, 3a–d and 4a–p) for in vitro antitumor screening at a single concentration of 10 μM toward the NCI60 cell lines panel covering leukaemia, non-small cell lungs, colon, central nervous system (CNS), melanoma, ovarian, renal, prostate, and breast cancer cells.[32–35] The data were reported as a mean graph of the percent growth of the treated cell lines and expressed as percentage growth inhibition (GI%) in Table 1 and ESI 1.
(2) The molar concentration of the compound responsible for total growth inhibition, also known as total growth inhibition (TGI).
Regarding subpanel selectivity toward certain cancer type, the method of determining a compound's selectivity index is to divide the full panel MG-MID (μM) value by each single subpanel. Values above six indicate high selectivity against the subpanel; moderate selectivity is denoted by values between three and six. Conversely, compounds are termed nonselective if their selectivity is less than three.[30,37]

NCI-H322M = assay: NCI60 antitumor screening; conditions: 10 μM one-dose

SMILES: N#Cc1c(-c2ccc(F)cc2)nc(SCc2ccc(F)cc2)[nH]c1=O [2b, 2-((4-Fluorobenzyl)thio)-4-(4-fluorophenyl)-6-oxo-1,6-dihydropyrimidine-5-carbonitrile]
- GI% (CCRF-CEM): — (GI% < 10)
- GI% (HL-60(TB)): 20.88%
- GI% (K-562): — (GI% < 10)
- GI% (K-562; Table 1): — ^b (GI value > 70%)
- GI% (MOLT-4): — (GI% < 10)
- GI% (RPMI-8226): — (GI% < 10)
- GI% (SR; Table 1): — (GI value > 70%)
- GI% (A549/ATCC): 15.77%
- GI% (EKVX): — (GI% < 10)
- GI% (HOP-62): 16.84%
- GI% (HOP-62; Table 1): — (GI value > 70%)
- GI% (HOP-92): 19.25%
- GI% (NCI-H226): 24.21%
- GI% (NCI-H226; Table 1): — (GI value > 70%)
- GI% (NCI-H23): 12.73%
- GI% (NCI-H460): 13.27%
- GI% (NCI-H522): 25.94%
- GI% (COLO 205): — (GI% < 10)
- GI% (HCC-2998): — (GI% < 10)
- GI% (HCT-116): 33.39%
- GI% (HCT-15): — (GI% < 10)
- GI% (HT29): — (GI% < 10)
- GI% (KM12): — (GI% < 10)
- GI% (SW-620): — (GI% < 10)
- GI% (SF-268): 24.67%
- GI% (SF-295): 25.73%
- GI% (SF-539): 45.33%
- GI% (SF-539; Table 1): — (GI value > 70%)
- GI% (SNB-19): 18.35%
- GI% (SNB-75): 23.60%
- GI% (SNB-75; Table 1): — (GI value > 70%)
- GI% (U251): 33.40%
- GI% (LOX IMVI): 10.55%
- GI% (MALME-3M): — (GI% < 10)
- GI% (M14): — (GI% < 10)
- GI% (MDA-MB-435): — (GI% < 10)
- GI% (SK-MEL-2): — (GI% < 10)
- GI% (SK-MEL-28): — (GI% < 10)
- GI% (SK-MEL-5): — (GI% < 10)
- GI% (UACC-257): — (GI% < 10)
- GI% (UACC-62): 11.33%
- GI% (IGROV1): — (GI% < 10)
- GI% (OVCAR-3): — (GI% < 10)
- GI% (OVCAR-4; Table 1): 73.14%
- GI% (OVCAR-5): — (GI% < 10)
- GI% (OVCAR-8): 48.04%
- GI% (NCI/ADR-RES): 37.17%
- GI% (SK-OV-3): 26.25%
- GI% (786–0; Table 1): 84.82%
- GI% (A498): — (GI% < 10)
- GI% (ACHN): 26.83%
- GI% (CAKI-1): 24.10%
- GI% (RXF 393): 28.91%
- GI% (RXF 393; Table 1): — (GI value > 70%)
- GI% (SN12C): 17.08%
- GI% (TK-10): 17.90%
- GI% (UO-31): 26.71%
- GI% (PC-3): — (GI% < 10)
- GI% (DU-145): — (GI% < 10)
- GI% (MCF7): — (GI% < 10)
- GI% (MDA-MB-231/ATCC): 39.26%
- GI% (HS 578T): 24.34%
- GI% (HS 578T; Table 1): — (GI value > 70%)
- GI% (BT-549): — (GI% < 10)
- GI% (T-47D): 25.99%
- GI% (MDA-MB-468): 14.26%
- Mean GI% (NCI60 cell lines panel): 16.01%

SMILES: N#Cc1c(-c2ccc(F)cc2)nc(SCc2ccc([N+](=O)[O-])cc2)[nH]c1=O [2c, 4-(4-Fluorophenyl)-2-((4-nitrobenzyl)thio)-6-oxo-1,6-dihydropyrimidine-5-carbonitrile]
- GI% (CCRF-CEM): 15.45%
- GI% (HL-60(TB)): 49.95%
- GI% (K-562): 31.45%
- GI% (MOLT-4): 24.34%
- GI% (RPMI-8226): 14.16%
- GI% (SR): — (GI% < 10)
- GI% (A549/ATCC): — (GI% < 10)
- GI% (EKVX): 12.04%
- GI% (HOP-62): — (GI% < 10)
- GI% (HOP-92): 33.01%
- GI% (NCI-H226): 22.53%
- GI% (NCI-H23): — (GI% < 10)
- GI% (NCI-H322M): — (GI% < 10)
- GI% (NCI-H460): — (GI% < 10)
- GI% (NCI-H522): 30.52%
- GI% (COLO 205): — (GI% < 10)
- GI% (HCC-2998): — (GI% < 10)
- GI% (HCT-116): 22.23%
- GI% (HCT-15): 13.42%
- GI% (HT29): 37.56%
- GI% (KM12): — (GI% < 10)
- GI% (SW-620): 10.78%
- GI% (SF-268): — (GI% < 10)
- GI% (SF-295): 10.37%
- GI% (SF-539): — (GI% < 10)
- GI% (SNB-19): — (GI% < 10)
- GI% (SNB-75): — (GI% < 10)
- GI% (U251): 13.78%
- GI% (LOX IMVI): 14.24%
- GI% (MALME-3M): — (GI% < 10)
- GI% (M14): — (GI% < 10)
- GI% (MDA-MB-435): — (GI% < 10)
- GI% (SK-MEL-2): — (GI% < 10)
- GI% (SK-MEL-28): — (GI% < 10)
- GI% (SK-MEL-5): 11.85%
- GI% (UACC-257): — (GI% < 10)
- GI% (UACC-62): 11.42%
- GI% (IGROV1): — (GI% < 10)
- GI% (OVCAR-3): — (GI% < 10)
- GI% (OVCAR-4): — (GI% < 10)
- GI% (OVCAR-5): — (GI% < 10)
- GI% (OVCAR-8): — (GI% < 10)
- GI% (NCI/ADR-RES): 12.03%
- GI% (SK-OV-3): — (GI% < 10)
- GI% (786–0): — (GI% < 10)
- GI% (A498): — (GI% < 10)
- GI% (ACHN): — (GI% < 10)
- GI% (CAKI-1): 10.99%
- GI% (RXF 393): — (GI% < 10)
- GI% (SN12C): 14.07%
- GI% (TK-10): — (GI% < 10)
- GI% (UO-31): 11.53%
- GI% (PC-3): 18.97%
- GI% (DU-145): — (GI% < 10)
- GI% (MCF7): — (GI% < 10)
- GI% (MDA-MB-231/ATCC): — (GI% < 10)
- GI% (HS 578T): — (GI% < 10)
- GI% (BT-549): — (GI% < 10)
- GI% (T-47D): 23.03%
- GI% (MDA-MB-468): — (GI% < 10)
- Mean GI% (NCI60 cell lines panel): — (GI% < 10)
